Test results taken from ChEMBL document CHEMBL4706581, “Discovery of methoxy-naphthyl linked N-(1-benzylpiperidine) benzamide as a blood-brain permeable dual inhibitor of acetylcholinesterase and butyrylcholinesterase” (Eur J Med Chem, 2020).

Experiments:
Cholinesterase [1] = biological target: T1, Cholinesterase (Equus caballus, UniProt P81908); assay: Inhibition of equine serum BChE using S-butyrylthiocholine iodide as substrate preincubated for 20 mins followed by substrate addition and measured every minute for 10 mins by DTNB-reagent based Ellman's method
Acetylcholinesterase [2] = biological target: Acetylcholinesterase (Electrophorus electricus, UniProt O42275); assay: Inhibition of electric eel AChE using acetylthiocholine iodide as substrate preincubated for 20 mins followed by substrate addition and measured every minute for 10 mins by DTNB-reagent based Ellman's method
[3] = Effective permeability of compound by PAMPA-BBB assay; type: ADME; conditions: read-out: Peff
Rattus norvegicus = species: Rattus norvegicus; assay: Inhibition of rat self-induced Amyloid beta (1 to 42 residues) aggregation at 10 uM incubated for 24 hrs by thioflavin-T fluorescence assay relative to control
Acetylcholinesterase [4] = biological target: T2, Acetylcholinesterase (Homo sapiens, UniProt P22303); assay: Non-competitive inhibition of recombinant human AChE assessed as decrease in Vmax with constant Km using varying level of acetylthiocholine iodide as substrate preincubated for 20 mins followed by substrate addition and measured every minute for 10 mins by Lineweaver-Burk plot analysis
Acetylcholinesterase [5] = biological target: T2, Acetylcholinesterase; assay: Inhibition of recombinant human AChE
Cholinesterase [6] = biological target: T1, Cholinesterase; assay: Mixed type inhibition of equine serum BChE assessed as decrease in Vmax and increase in Km using varying level of S-butyrylthiocholine iodide as substrate preincubated for 20 mins followed by substrate addition and measured every minute for 10 mins by Lineweaver-Burk plot analysis

T1 sequence (P81908 whole entry): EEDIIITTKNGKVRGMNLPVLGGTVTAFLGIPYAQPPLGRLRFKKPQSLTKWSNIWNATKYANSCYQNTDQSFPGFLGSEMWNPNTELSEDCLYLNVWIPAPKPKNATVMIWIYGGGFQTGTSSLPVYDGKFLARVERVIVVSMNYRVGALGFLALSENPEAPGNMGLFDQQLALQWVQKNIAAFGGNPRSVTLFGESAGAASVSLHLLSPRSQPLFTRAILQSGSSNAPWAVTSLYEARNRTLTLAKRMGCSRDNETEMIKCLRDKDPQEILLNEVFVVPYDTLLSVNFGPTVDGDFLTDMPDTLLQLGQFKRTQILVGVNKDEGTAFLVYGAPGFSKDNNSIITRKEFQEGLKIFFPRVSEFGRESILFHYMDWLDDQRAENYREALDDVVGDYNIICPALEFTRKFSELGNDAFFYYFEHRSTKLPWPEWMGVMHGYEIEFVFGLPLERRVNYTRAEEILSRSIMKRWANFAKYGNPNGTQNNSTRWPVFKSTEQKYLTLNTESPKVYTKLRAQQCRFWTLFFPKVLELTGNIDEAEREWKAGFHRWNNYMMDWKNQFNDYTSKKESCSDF
Acetylcholinesterase (Electrophorus electricus, UniProt O42275), sequence (O42275 whole entry): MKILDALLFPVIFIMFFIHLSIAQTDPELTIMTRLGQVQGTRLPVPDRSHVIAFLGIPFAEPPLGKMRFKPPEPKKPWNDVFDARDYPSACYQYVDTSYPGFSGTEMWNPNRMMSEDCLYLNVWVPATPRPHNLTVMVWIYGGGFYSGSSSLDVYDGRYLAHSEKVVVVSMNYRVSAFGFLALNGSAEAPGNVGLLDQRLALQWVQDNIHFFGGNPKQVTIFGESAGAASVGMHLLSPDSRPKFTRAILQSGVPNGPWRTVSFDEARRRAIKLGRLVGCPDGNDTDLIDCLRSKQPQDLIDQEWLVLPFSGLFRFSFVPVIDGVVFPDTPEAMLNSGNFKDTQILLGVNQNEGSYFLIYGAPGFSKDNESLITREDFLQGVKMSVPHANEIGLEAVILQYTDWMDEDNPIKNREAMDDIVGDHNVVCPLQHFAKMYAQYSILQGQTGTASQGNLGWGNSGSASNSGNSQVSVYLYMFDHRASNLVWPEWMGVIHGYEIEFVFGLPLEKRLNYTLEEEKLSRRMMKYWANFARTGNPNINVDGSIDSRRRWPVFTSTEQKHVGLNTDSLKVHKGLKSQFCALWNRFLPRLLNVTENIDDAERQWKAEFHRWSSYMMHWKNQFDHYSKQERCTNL
T2 sequence (P22303 whole entry): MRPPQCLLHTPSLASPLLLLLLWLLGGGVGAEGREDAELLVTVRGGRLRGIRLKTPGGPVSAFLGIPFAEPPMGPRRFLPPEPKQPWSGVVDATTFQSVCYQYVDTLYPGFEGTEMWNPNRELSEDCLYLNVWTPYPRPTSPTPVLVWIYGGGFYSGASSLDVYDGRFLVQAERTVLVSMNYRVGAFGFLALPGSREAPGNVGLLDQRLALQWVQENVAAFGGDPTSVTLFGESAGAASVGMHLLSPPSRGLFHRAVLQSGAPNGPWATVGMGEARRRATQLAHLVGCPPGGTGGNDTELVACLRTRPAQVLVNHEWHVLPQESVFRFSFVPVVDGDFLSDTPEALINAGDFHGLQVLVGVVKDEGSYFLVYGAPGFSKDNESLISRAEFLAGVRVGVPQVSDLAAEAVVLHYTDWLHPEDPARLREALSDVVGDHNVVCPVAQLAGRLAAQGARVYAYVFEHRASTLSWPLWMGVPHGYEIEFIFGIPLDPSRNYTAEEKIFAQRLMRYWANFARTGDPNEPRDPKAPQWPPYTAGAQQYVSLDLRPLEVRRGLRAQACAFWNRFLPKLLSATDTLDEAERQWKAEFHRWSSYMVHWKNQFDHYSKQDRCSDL

SMILES | IC50 (Cholinesterase [1]) [nM] | IC50 (Acetylcholinesterase [2]) [nM] | other results
O=C(Nc1cc[n+](Cc2ccccc2)cc1)c1ccc(OCc2ccccc2)cc1 | > 1000 | 360 | 
COc1cc(OC)cc(C(=O)Nc2cc[n+](Cc3ccccc3)cc2)c1 |  | 202 | 
COc1ccc2cc(C(=O)NCCc3cc[n+](Cc4ccccc4Cl)cc3)ccc2c1 | 830 | 500 | 
COc1ccc2cc(C(=O)NCCc3cc[n+](Cc4ccc(F)cc4)cc3)ccc2c1 | > 1000 | 740 | 
CCOc1ccc(C(=O)Nc2cc[n+](Cc3ccccc3)cc2)cc1 | 12700 | 201 | 
COc1ccc2cc(C(=O)NCCc3cc[n+](Cc4ccc([N+](=O)[O-])cc4)cc3)ccc2c1 | > 1000 | 740 | 
O=C(Nc1cc[n+](Cc2ccccc2)cc1)c1ccc2cc(Br)ccc2c1 |  | 1440 | 
COc1ccc2cc(C(=O)Nc3cc[n+](Cc4ccccc4)cc3)ccc2c1 | 1590 | 218 | 
COc1ccc2cc(C(=O)NCCc3cc[n+](Cc4ccccc4)cc3)ccc2c1.[Br-] | 680 | 770 | Papp [3]: 1.3 ×10⁻⁶ cm/s
COc1ccc2cc(C(=O)Nc3cc[n+](Cc4ccc(F)cc4)cc3)ccc2c1 | > 1000 | 210 | 
COc1ccc(C(=O)Nc2cc[n+](Cc3ccccc3)cc2)cc1 |  | 216 | 
COc1ccc2cc(C(=O)Nc3cc[n+](Cc4ccccc4[N+](=O)[O-])cc3)ccc2c1 | > 1000 | 480 | 
COc1ccc2cc(C(=O)NCCc3cc[n+](Cc4ccccc4[N+](=O)[O-])cc3)ccc2c1 | > 1000 | 280 | 
COc1ccc(C(=O)Nc2cc[n+](Cc3ccccc3)cc2)cc1OC |  | 420 | 
COc1ccc2cc(C(=O)Nc3cc[n+](Cc4ccccc4F)cc3)ccc2c1 | > 1000 | 210 | 
COc1ccc2cc(C(=O)NCCc3cc[n+](Cc4cccc(Cl)c4)cc3)ccc2c1 | > 1000 | 610 | 
COc1ccc2cc(C(=O)NCCc3cc[n+](Cc4ccccc4C)cc3)ccc2c1 | > 1000 | 1080 | 
CC(C)c1ccc(C(=O)Nc2cc[n+](Cc3ccccc3)cc2)cc1 |  | 852 | 
N#Cc1ccc(C(=O)Nc2cc[n+](Cc3ccccc3)cc2)cc1 |  | 469 | 
COc1ccc2cc(C(=O)Nc3cc[n+](Cc4ccc(Cl)cc4)cc3)ccc2c1 | > 1000 | 900 | 
COc1ccc2cc(C(=O)Nc3cc[n+](Cc4ccccc4Cl)cc3)ccc2c1 | > 1000 | 340 | 
O=C(Nc1cc[n+](Cc2ccccc2)cc1)c1ccc(-c2ccccc2)cc1 | > 1000 | 770 | 
COc1ccc2cc(C(=O)NCCC3CCN(Cc4ccccc4)CC3)ccc2c1 |  |  | inhibition (Rattus norvegicus): 25%; Ki (Acetylcholinesterase [4]): 210 nM; IC50 (Acetylcholinesterase [5]): 170 nM; Papp [3]: 6.9 ×10⁻⁶ cm/s; Ki (Cholinesterase [6]): 150 nM
COc1ccc2cc(C(=O)Nc3cc[n+](Cc4ccccc4C)cc3)ccc2c1 | > 1000 | 435 | 
COc1ccc2cc(C(=O)NCCc3cc[n+](Cc4ccccc4F)cc3)ccc2c1 | > 1000 | 280 | 
